Calls of active or inactive are those of the source. The rule behind the calls is not given here.
These compounds were tested against Caspase-6 (Homo sapiens) (UniProt P55212) (assay: inhibition of CASP6 peptide cleavage – biochemical, VEID-R110 fluorescence, cherry-pick, dose response (AID 720632)). Conditions: caspase-6, VEID-R110 fluorogenic substrate; at 26 µM (top of the series).
Sequence of Caspase-6 (Homo sapiens) (P55212 24-179 limits assumed): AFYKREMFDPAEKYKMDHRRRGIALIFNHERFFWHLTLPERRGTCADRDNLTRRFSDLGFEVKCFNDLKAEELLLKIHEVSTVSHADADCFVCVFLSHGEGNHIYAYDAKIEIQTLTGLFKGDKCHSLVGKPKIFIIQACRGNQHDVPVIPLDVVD
Sequence of Caspase-6 (Homo sapiens) (P55212 194-293 limits assumed): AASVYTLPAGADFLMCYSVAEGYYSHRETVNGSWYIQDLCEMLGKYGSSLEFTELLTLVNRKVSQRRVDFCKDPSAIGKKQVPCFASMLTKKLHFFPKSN

Activity change, negative = inhibition, inactive:
C#CCNC(=O)C[C@@H]1C[C@@]2(C(=O)OCC)CCC=C2N(Cc2ccc(Cl)cc2Cl)C1=O
CCc1noc(C)c1C(=O)Nc1ccc(S(=O)(=O)N2CCCC(C)C2)cc1 (configuration not stated)
O=C1Nc2cc(Cl)cnc2N2CCCC12 (configuration not stated)
Cc1ccn2c(=S)[nH]nc2c1
CO[C@H]1CN(C)C(=O)c2cc(NC(=O)C3CC3)ccc2OC[C@H](C)N(C(=O)c2ccccc2)C[C@H]1C
COc1ccc(OC)c(S(=O)(=O)NCC(c2cccs2)N2CCc3ccccc3C2)c1 (configuration not stated)
O=C1c2ccccc2C(=O)C1(CO)c1ccccc1
CO[C@@H]1CN(C)C(=O)c2ccc(NC(=O)C3CC3)cc2OC[C@H](C)N(CC2CCOCC2)C[C@H]1C
CCCC(=O)n1nc(-c2cccnc2)nc1NCc1ccc(OC)cc1
O=C(NN=C1CCCC1)c1n[nH]c2c1CCC2
Cc1ccc(NC(=O)c2ccc([N+](=O)[O-])o2)cc1S(=O)(=O)N1CCOCC1
COc1ccccc1C(=O)Nc1ccc2c(c1)OC[C@@H](C)N(CC1CC1)C[C@H](C)[C@@H](OC)CN(C)C2=O
CC(C)OCCCNC(=O)CN1C(=O)COc2ccc(S(=O)(=O)N3CCCCCC3)cc21
O=C(NC(=O)c1csnn1)Nc1ccccc1Cl
CCN(CC)C(=O)COc1ccc(/C(C)=N/NC(=O)c2ccccc2O)cc1
COc1ccc(NS(=O)(=O)c2cc(NC(=O)[C@H](C)NC(N)=O)ccc2N2CCCC2)cc1
O=C(Nc1ccc(C(=O)N2CCCC2)cc1)c1ccc2c(c1)OCO2

— PubChem BioAssay AID720632 (Broad Institute, 2013)
